From PMC5239439, “Virtual screening, optimization, and identification of a novel specific PTP-MEG2 Inhibitor with potential therapy for T2DM” (Oncotarget, 2016) come the findings set out here.

What all share (format): biochemical
Experiment [1] addresses T1, PTP-MEG2 (Homo sapiens, UniProt P43378).
T1 construct: host or cells: E. coli
T1 sequence (P43378 1-593): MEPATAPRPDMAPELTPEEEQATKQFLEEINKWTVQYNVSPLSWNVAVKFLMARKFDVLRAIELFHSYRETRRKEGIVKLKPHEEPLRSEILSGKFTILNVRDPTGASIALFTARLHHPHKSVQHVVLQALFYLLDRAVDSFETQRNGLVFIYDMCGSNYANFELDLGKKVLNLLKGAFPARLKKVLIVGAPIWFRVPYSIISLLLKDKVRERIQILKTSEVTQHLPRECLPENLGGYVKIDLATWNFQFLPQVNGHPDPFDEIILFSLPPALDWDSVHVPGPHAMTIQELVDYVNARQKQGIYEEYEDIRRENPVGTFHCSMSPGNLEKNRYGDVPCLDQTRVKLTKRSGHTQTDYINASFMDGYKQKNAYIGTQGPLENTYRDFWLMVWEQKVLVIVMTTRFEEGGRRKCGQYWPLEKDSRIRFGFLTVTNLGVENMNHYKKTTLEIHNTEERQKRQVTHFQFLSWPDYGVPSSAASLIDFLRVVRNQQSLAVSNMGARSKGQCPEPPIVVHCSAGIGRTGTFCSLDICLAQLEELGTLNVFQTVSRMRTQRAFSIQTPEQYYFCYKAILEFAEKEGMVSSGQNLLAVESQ
The experiment can be described thus: Enzymatic assay with pNPP as substrate, PTP-MEG2. To be noted: pH 6.0, 37°C 30 min. The protocol:
(§1) Briefly, pNPP was hydrolyzed by PTPs to give para-nitrophenol. Para-nitrophenol converts into para-nitrophenolate (pNP), measured with a spectrophotometer after stopping solution was added. The regents and chemicals used in this assay are as follows: Ni-NTA labeled human recombinant PTPs expressed in E coli; de-phosphorylation assay buffer (50 mM citrate (pH 6.0), 0.1 M NaCl, 1 mM EDTA and 1 mM dithiothreitol (DTT)); substrate (2 mM pNPP) in assay buffer; stopping solution (0.2 M sodium hydroxide). PTPs and test-compounds with geometrically increasing concentrations were mixed in 50 μL buffer in each well of a 96-well plate. An equivalent volume of buffer without PTPs was used as blank control. After pre-incubation for 15 min at room temperature, the substrate (50 μL) was added into each well and incubated at 37°C for 30 min. Stopping buffer was poured into each well on ice and the OD value was read at 405 nm against blank.

For experiment [2], the target named is T2, TCPTP (Homo sapiens, UniProt P17706).
T2 construct: host or cells: E. coli
T2 sequence (P17706 1-415): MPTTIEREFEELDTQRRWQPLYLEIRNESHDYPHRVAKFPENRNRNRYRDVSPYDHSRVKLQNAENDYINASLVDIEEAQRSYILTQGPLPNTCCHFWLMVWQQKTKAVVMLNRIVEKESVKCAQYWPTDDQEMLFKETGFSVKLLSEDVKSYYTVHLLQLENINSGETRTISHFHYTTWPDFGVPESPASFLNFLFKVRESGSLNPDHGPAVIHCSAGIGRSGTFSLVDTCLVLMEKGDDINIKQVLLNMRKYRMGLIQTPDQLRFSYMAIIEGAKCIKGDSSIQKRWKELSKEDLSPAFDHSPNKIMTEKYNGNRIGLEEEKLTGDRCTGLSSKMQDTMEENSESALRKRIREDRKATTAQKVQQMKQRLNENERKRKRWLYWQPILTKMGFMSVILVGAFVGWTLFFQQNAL
The experiment can be described thus: Enzymatic assay with pNPP as substrate, TCPTP. As for the experimental part:
as §1

The target in experiment [3] is T3, PTP1B (Homo sapiens, UniProt P18031).
T3 construct: host or cells: E. coli
T3 sequence (P18031 1-435): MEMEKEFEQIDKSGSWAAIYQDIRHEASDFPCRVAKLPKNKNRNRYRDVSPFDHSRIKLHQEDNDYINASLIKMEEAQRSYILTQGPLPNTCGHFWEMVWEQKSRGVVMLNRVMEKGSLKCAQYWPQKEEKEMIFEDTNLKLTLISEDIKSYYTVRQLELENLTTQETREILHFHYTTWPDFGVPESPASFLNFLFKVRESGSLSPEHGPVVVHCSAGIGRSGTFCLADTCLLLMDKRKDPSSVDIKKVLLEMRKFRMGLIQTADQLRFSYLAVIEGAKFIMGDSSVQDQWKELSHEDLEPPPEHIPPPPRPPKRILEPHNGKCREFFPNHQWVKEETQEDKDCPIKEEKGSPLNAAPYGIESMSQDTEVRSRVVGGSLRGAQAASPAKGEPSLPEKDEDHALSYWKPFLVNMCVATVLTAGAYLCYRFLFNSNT
The experiment can be described thus: Enzymatic assay with pNPP as substrate, PTP1B. The following applies: pH 6.0, 37°C 30 min. The protocol: as §1

Like-named read-outs stand apart in the source and are kept apart here. Some results are limits rather than exact numbers.

Turning to `O=C(CCCSc1nc2ccccc2s1)Nc1cccc2ccccc12` [Compound 4b, 4-(benzo[d]thiazol-2-ylthio)-N-(naphthalen-1-yl)butanamide], the IC50 in experiment [1] is 4.3 µM; in experiment [2] (pNPP substrate, pH 6.0, 37°C 30 min, read-out: IC50 TCPTP), over 25 µM; in experiment [3], over 25 µM.
As to `O=C(CSc1nc2ccccc2s1)Nc1cccc2ccccc12` [Compound 4a, 2-(benzo[d]thiazol-2-ylthio)-N-(naphthalen-1-yl)acetamide], the IC50 is 3.2 µM in experiment [1], over 25 µM in experiment [2] and over 25 µM in experiment [3].

As a reminder, the IC50 is the concentration that gives 50% inhibition.
